Experimental data as given in ChEMBL document CHEMBL1149690, “Membrane permeable esterase-activated fluorescent imaging probe” (Bioorg Med Chem Lett, 2007).

Assays:
[1] = Photostability after 30 mins assessed by fluorescence intensity; assay type: ADME; details: 0.5 h
[2] = Chemical stability assessed as hydrolysis at pH 3 to 9 after 1.5 hrs; assay type: physicochemical; details: buffer, pH 3, 1.5 h
[3] = Chemical stability assessed as hydrolysis at pH more than 10; assay type: physicochemical
[4] = Chemical stability assessed as hydrolysis at pH below 1; assay type: physicochemical

Row | Fluorescence intensity [1] [%] | Activity [2] | Activity [3] | Activity [4] | Compound
1 | < 15 |  |  |  | CCCN1/C(=C/C=C2\CCC/C(=C\C=C3\N(CCC)c4ccccc4C3(C)C)C2=O)C(C)(C)c2ccccc21
2 |  | Not Active | Active | Active | CCCN1/C(=C/C=C2\CCCC(/C=C/C3=[N+](CCC)c4ccccc4C3(C)C)=C2OC(C)=O)C(C)(C)c2ccccc21.[I-]
